PMC4574540, “Aspergillus niger membrane-associated proteome analysis for the identification of glucose transporters” (Biotechnology for Biofuels, 2015)

Experiments:
MstG = target: T1, MstG (Aspergillus niger, UniProt A2QKT1); assay: competition of […]-glucose uptake in yeast cells; assay type: cell-based; conditions: read-out: % inhibition at 10 mM
T1 construct: gene An05g01290; also called pRS426H7), expressed in S. cerevisiae EBY.VW4000 hexose transporter null mutant, whole-cell uptake
T1 sequence (A2QKT1 1-542): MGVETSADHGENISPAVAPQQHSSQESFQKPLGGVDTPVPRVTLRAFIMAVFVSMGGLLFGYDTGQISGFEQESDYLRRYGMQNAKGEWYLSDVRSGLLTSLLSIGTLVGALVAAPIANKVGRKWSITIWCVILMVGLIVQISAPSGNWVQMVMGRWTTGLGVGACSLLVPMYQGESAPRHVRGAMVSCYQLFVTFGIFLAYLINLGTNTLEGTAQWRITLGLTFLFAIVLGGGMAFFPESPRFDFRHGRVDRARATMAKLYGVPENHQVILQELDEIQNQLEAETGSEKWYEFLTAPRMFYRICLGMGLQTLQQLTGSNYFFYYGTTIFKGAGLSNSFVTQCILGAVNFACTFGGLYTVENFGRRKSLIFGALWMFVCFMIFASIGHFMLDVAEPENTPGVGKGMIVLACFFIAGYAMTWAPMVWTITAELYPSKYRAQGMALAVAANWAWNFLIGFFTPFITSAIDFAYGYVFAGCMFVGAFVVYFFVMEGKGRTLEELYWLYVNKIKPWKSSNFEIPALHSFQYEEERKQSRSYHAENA

MstH = target: T2, MstH (Aspergillus niger, UniProt A5ABZ0); assay: competition of […]-glucose uptake in yeast cells; assay type: cell-based; conditions: read-out: % inhibition at 10 mM
T2 construct: gene An15g03940; also called pRS426H7), expressed in S. cerevisiae EBY.VW4000 hexose transporter null mutant, whole-cell uptake
T2 sequence (A5ABZ0 1-527): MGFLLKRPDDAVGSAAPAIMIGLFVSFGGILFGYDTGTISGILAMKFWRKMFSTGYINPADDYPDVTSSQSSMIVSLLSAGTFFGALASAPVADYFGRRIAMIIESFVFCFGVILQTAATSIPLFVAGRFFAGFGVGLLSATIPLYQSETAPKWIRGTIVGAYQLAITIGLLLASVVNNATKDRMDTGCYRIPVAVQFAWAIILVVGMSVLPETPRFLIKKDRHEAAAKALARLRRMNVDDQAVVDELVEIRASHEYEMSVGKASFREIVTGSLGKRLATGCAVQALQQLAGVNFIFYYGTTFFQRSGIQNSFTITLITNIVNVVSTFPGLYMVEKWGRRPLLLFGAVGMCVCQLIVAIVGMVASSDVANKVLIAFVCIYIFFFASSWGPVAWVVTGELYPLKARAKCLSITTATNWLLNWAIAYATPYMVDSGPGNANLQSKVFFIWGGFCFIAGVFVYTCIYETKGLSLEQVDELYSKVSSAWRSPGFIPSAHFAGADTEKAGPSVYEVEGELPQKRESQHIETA

| Compound | inhibition at 10000 µM (MstG) | inhibition at 10000 µM (MstH) |
| --- | --- | --- |
| OC1OC[C@@H](O)[C@H](O)[C@H]1O (some centres unmarked) [xylose] | 25% |  |
| OC[C@H]1OC(O)[C@@H](O)[C@@H](O)[C@@H]1O (some centres unmarked) [mannose] |  | 70% |
| OCC1(O)OC[C@@H](O)[C@@H](O)[C@@H]1O (some centres unmarked) [fructose] | 29% | 50% |
| OC[C@H]1OC(O)[C@H](O)[C@@H](O)[C@H]1O (some centres unmarked) [galactose] | 39% |  |
